Counter-ions that a name gives are not always drawn.
How the values were obtained:
Format in all cases: cell-based
[1] = system: MIP; assay: Antiproliferative activity in human tumor cell lines: MIP (colon); conditions: PROTOCOL 1 and PROTOCOL 2, 48 hours
Experimental: (§1) The antiproliferative activity of the compounds of Formula I in an Adult Bovine Aortic Endothelial (ABAE) cell line and in Human Tumor cell lines is evaluated in three similar assays that measure growth inhibition. The assays are identified as follows:
(§2) PROTOCOL 1,2,and 3 are described in greater detail hereinbelow. In general, according to PROTOCOLS 1 and 2, the target ABAE and/or Human Tumor cells are exposed to the compounds of Formula I for 48 hours. PROTOCOL 3 exposes ABAE cells to the compounds for 4 days. A detailed description of the protocols is as follows:
(§3) The antiproliferative activity of the compounds of Formula I of the present invention is evaluated in a panel comprised of human tumor cell lines and an adult bovine aortic endothelial cell line (ABAE). The human tumor cell lines are from
(§4) All cell lines are maintained in log phase in RPMI 1640 media, supplemented with 5% fetal calf serum, penicillin/streptomycin and 2 mM L-glutamine. Cultures are renewed after 20 passages with cells from a fresh stock of batch-frozen early passage cells. Cell lines are routinely checked for mycoplasma contamination (Genprobe). In a laminar flow hood, cells (1-5×10^4) are plated into 96-well microtiter plates in a volume of 0.1 ml/well with a bulk microtiter dispenser (Denley). […] At this concentration, dimethylsulfoxide has no effect on cell growth. Compounds are added using a Tomtec dispenser which simultaneously dispenses from one 96-well plate, containing the drug dilutions, to the plates containing the cells. After two days of continuous drug exposure, 50% cold trichloroacetic acid (TCA) is added to 10% final concentration to fix the cells, and after 60 minutes at 4° C., the TCA is aspirated and the plates are washed 5 times with deionized water using a microtiter plate washer. The number of cells on the plate are quantitated using a protein dye-binding assay (Monks et al., 1991). A 0.4% solution of the dye, sulforhodamine B, in glacial acetic acid is added to the plates, and the plates are washed 5 times with 1% glacial acetic acid using the automatic plate washed. The bound stain is solubilized with 0.1 ml of 10 mM Tris base. The optical densities are read from an automatic spectrophotometric plate reader (Dynatech) directly to a main frame computer (VAX 8600).
(§5) Positive controls, that include standard chemotherapeutic drugs (i.e., Adriamycin, Cisplatin, etc.), are included in every experiment.
(§6) Background optical density measurements (complete media-cells, and complete media+drug-cells) are automatically subtracted from the appropriate control and test wells. Mean values and standard errors are determined from duplicate wells. A measure is also made of the optical density at time when the drugs are added. The number of cells after treatment (P), as % of control, is calculated for every concentration of drug, as follows: [formula] wherein: T is optical density measurement for treated cells after 48 hours;
(§7) C is optical density measurement for untreated cells after 48 hours;
(§8) Co is optical density measurement for cells at the time of drug addition.
(§9) IC50 of growth inhibition is calculated from the sets of P values using the RS-1 data package (BBN Software).
(§10) The antiproliferative activity of the compounds of Formula I is evaluated in a panel comprised of human tumor cell lines and an adult bovine aortic cell line (ABAE) as listed in PROTOCOL 1. This assay is a modification of PROTOCOL 1. The modifications include:
(§11) 1) each concentration for each compound is tested in a single well;
(§12) 2) compounds are tested at 20, 4, 0.8, 0.16 microgram/ml and additionally in some experiments at 100 and 0.32 microgram/ml;
(§13) 3) samples are pipetted into a 96-well plate for each of the cell lines by a Beckman Biomek 1000 SL robot;
(§14) 4) after fixing with TCA each well is washed with 0.35 ml distilled water twice, not five times;
(§15) 5) after staining with sulforhodamine B each well is washed 3 times, not five times; […]

[2] = system: Adult Bovine Aortic Endothelial (ABAE) cell line; assay: Antiproliferative activity in ABAE cell line, PROTOCOL 1; conditions: Bos taurus, PROTOCOL 1, 48 hours
Experimental: The antiproliferative activity of the compounds of Formula I in an Adult Bovine Aortic Endothelial (ABAE) cell line and in Human Tumor cell lines is evaluated in three similar assays that measure growth inhibition. The assays are identified as follows: PROTOCOL 1,2,and 3 are described in greater detail hereinbelow. In general, according to PROTOCOLS 1 and 2, the target ABAE and/or Human Tumor cells are exposed to the compounds of Formula I for 48 hours. PROTOCOL 3 exposes ABAE cells to the compounds for 4 days. A detailed description of the protocols is as follows: PROTOCOL 1 Antiproliferative Activity in Human Tumor and Adult Bovine Aortic Endothelial Cell Lines (ABAE) The antiproliferative activity of the compounds of Formula I of the present invention is evaluated in a panel comprised of human tumor cell lines and an adult bovine aortic endothelial cell line (ABAE). The human tumor cell lines are from All cell lines are maintained in log phase in RPMI 1640 media, supplemented with 5% fetal calf serum, penicillin/streptomycin and 2 mM L-glutamine. Cultures are renewed after 20 passages with cells from a fresh stock of batch-frozen early passage cells. Cell lines are routinely checked for mycoplasma contamination (Genprobe). In a laminar flow hood, cells (1-5×10^4) are plated into 96-well microtiter plates in a volume of 0.1 ml/well with a bulk microtiter dispenser (Denley). […] At this concentration, dimethylsulfoxide has no effect on cell growth. Compounds are added using a Tomtec dispenser which simultaneously dispenses from one 96-well plate, containing the drug dilutions, to the plates containing the cells. After two days of continuous drug exposure, 50% cold trichloroacetic acid (TCA) is added to 10% final concentration to fix the cells, and after 60 minutes at 4° C., the TCA is aspirated and the plates are washed 5 times with deionized water using a microtiter plate washer. The number of cells on the plate are quantitated using a protein dye-binding assay (Monks et al., 1991). A 0.4% solution of the dye, sulforhodamine B, in […] is added to the plates, and the plates are washed 5 times with 1% […] using the automatic plate washed. The bound stain is solubilized with 0.1 ml of 10 mM Tris base. The optical densities are read from an automatic spectrophotometric plate reader (Dynatech) directly to a main frame computer (VAX 8600). Positive controls, that include standard chemotherapeutic drugs (i.e., Adriamycin, Cisplatin, etc.), are included in every experiment. Background optical density measurements (complete media-cells, and complete media+drug-cells) are automatically subtracted from the appropriate control and test wells. Mean values and standard errors are determined from duplicate wells. A measure is also made of the optical density at time when the drugs are added. The number of cells after treatment (P), as % of control, is calculated for every concentration of drug, as follows: [formula] wherein: T is optical density measurement for treated cells after 48 hours; C is optical density measurement for untreated cells after 48 hours; Co is optical density measurement for cells at the time of drug addition. IC50 of growth inhibition is calculated from the sets of P values using the RS-1 data package (BBN Software). Table 1 presents the results depicting the antiproliferative activity of the compounds of Formula I against an Adult Bovine Aortic Endothelial cell line (ABAE), as evaluated by PROTOCOL 1 and 2. The results are presented in terms of IC50 and are as follows.

[3] = system: Human Tumor cell lines; assay: Antiproliferative activity in the panel of human tumor cell lines; conditions: for IC50: Homo sapiens, average over the 6 tumor cell lines
Experimental: as §1, §2, §3, §4, §5, §6, §7, §8, §9, §10, §11, §12, §13, §14, §15

Row | SMILES | IC50 [1] [µg/mL] | IC50 [2] [µg/mL] | IC50 [3] [µg/mL] | inhibition of cell growth at the highest concentrations ([3]; FIG. 2, 6 Human Tumor cell lines, highest concentrations) | Dead floating cells ([3]; at the highest concentration)
1 | CN(C)CC(=O)Nc1c(Cl)cc2c(c1O)C(=O)C1=C(O)[C@]3(O)C(=O)C(C(N)=O)=C(O)[C@@H](N(C)C)C3CC1C2 (stereo partly drawn) [Example 3, [4S-(45, 12aα)]-8-Chloro-4-(dimethylamino)-9[[(dimethylamino)acetyl]amino]-1,4,4a,5,5a,6,11,12a-octahydro-3,10,12,12a-tetrahydroxy-1,11-dioxo-2-naphthacenecarboxamide disulfate] | 2.2 | 2.2 | 1.9 |  | 
2 | CCCCNCC(=O)Nc1c(Cl)cc2c(c1O)C(=O)C1=C(O)[C@]3(O)C(=O)C(C(N)=O)=C(O)[C@@H](N(C)C)C3CC1C2 (stereo partly drawn) [Example 4, [4S-(4α, 12aα)]-9-[[(Butylamino)acetyl]amino]-8-chloro-4-(dimethylamino) -1,4,4a,5,5a,6,11,12a-octahydro-3,10,12,12a-tetrahydroxy-1,11-dioxo-2-naphthacenecarboxamide dihydrochloride] | 3.1 | 2.3 | 2.5 |  | 
3 | CCCNCC(=O)Nc1c(Cl)cc2c(c1O)C(=O)C1=C(O)[C@]3(O)C(=O)C(C(N)=O)=C(O)[C@@H](N(C)C)C3CC1C2 (stereo partly drawn) [Example 5, [4S-(4α, 12aα)]-8-Chloro-4-(dimethylamino)-1,4,4a,5,5a, 6,11,12a-octahydro-3,10,12,12a-tetrahydroxy-1,11-dioxo-9-[[(propylamino)acetyl]amino]-2-naphthacenecarboxamide dihydrochloride] | 10 | 2 | 4.6 | no 100% inhibition of cell growth | not observed
4 | CCCCCNCC(=O)Nc1c(Cl)cc2c(c1O)C(=O)C1=C(O)[C@]3(O)C(=O)C(C(N)=O)=C(O)[C@@H](N(C)C)C3CC1C2 (stereo partly drawn) [Example 6, [4S-(4α, 12aα)]-8-Chloro-4-(dimethylamino)-1,4,4a,5,5a,6,11,12a-octahydro-3,10,12,12a-tetrahydroxy-1,11-dioxo-9-[[(pentylamino)acetyl]amino]-2-naphthacenecarboxamide dihydrochloride] | 1.5 | 0.6 | 0.8 |  | 
5 | CNCC(=O)Nc1c(Cl)cc2c(c1O)C(=O)C1=C(O)[C@]3(O)C(=O)C(C(N)=O)=C(O)[C@@H](N(C)C)C3CC1C2 (stereo partly drawn) [Example 7, [4S-(4α, 12aα)]-8-Chloro-4-(dimethylamino)-1,4,4a,5,5a,6,11,12a-octahydro-3,10,12,12a-tetrahydroxy-1,11-dioxo-9-[[(methylamino)acetyl]amino]-2-naphthacenecarboxamide dihydrochloride] | 8.5 | 3.3 | 4.3 |  | 
6 | CN(C)[C@@H]1C(O)=C(C(N)=O)C(=O)[C@@]2(O)C(O)=C3C(=O)c4c(cc(Cl)c(NC(=O)CNCC5CC5)c4O)CC3CC12 (stereo partly drawn) [Example 8, [4S-(4α,12aα)]-8-Chloro-9-[[(cyclopropylmethylamino)-acetyl]amino]4-(dimethylamino)-1,4,4a,5,5a,6,11,12a-octahydro-3,10,12,12a-tetrahydroxy-1,11-dioxo-2-naphthacenecarboxamide dihydrochloride] | 3.8 | 2 | 2.45 |  | 
7 | CN(C)[C@@H]1C(O)=C(C(N)=O)C(=O)[C@@]2(O)C(O)=C3C(=O)c4c(cc(Cl)c(NC(=O)CN5CCCC5)c4O)CC3CC12 (stereo partly drawn) [Example 9, [7S-(7α,10aα)]-N-[9-(Aminocarbonyl)-3-chloro-7-(dimethylamino)-5,5a,6,6a,7,10,10a,12-octahydro-1,8,10a,11-tetrahydroxy-10,12-dioxo-2-naphthacenyl]-1-pyrrolidineacetamide dihydrochloride] | 0.8 | 2.5 | 1.45 |  | 
8 | CN(C)[C@@H]1C(O)=C(C(N)=O)C(=O)[C@@]2(O)C(O)=C3C(=O)c4c(cc(Cl)c(NC(=O)CN5CCCCC5)c4O)CC3CC12 (stereo partly drawn) [Example 10, 7S-(7α,10aα)]-N-[9-(Aminocarbonyl)-3-chloro-7-(dimethylamino)-5,5a,6,6a,7,10,10a,12-octahydro-1,8,10a,11-tetrahydroxy-10,12-dioxo-2-naphthacenyl]-1-piperidineacetamide dihydrochloride] | 0.7 | 0.7 | 0.6 |  | 
9 | CN(C)c1c(Cl)cc(O)c2c1CC1CC3[C@H](N(C)C)C(O)=C(C(N)=O)C(=O)[C@@]3(O)C(O)=C1C2=O (stereo partly drawn) [Example 11, [4S-(4α,12aα)]-8-Chloro-4,7-bis(dimethylamino)-1,4,4a,5,5a,6,11,12a-octahydro-3,10,12,12a-tetrahydroxy-1,11-dioxo-2-naphthacenecarboxamide sulfate] | 2.6 | 3 | 2.8 |  | 

From US5567693A, “Method for inhibiting angiogenesis, proliferation of endothelial or tumor cells and tumor growth” (American Cyanamid Company, priority 1994, dated 1996)
